What was measured:
in vitro [1] = settings: human
in vitro [2] = settings: human; remark: listed apart in the source
HPV = settings: after three months of treatment, confirmed by smears and biopsies; cited from earlier work
ankle wart = test: Topical treatment of a large ankle wart, case of a person; assay type: in vivo, human
warts = settings: human, in vivo; cited from earlier work

Structure (SMILES): C=C1C(=O)O[C@@H]2C[C@@H](C)[C@@H]3C=CC(=O)[C@@]3(C)[C@@H](O)[C@H]12 (racemic) [H. tox, (±)-4-Hydroxy-4a,8-dimethyl-3,3a,4a,7a,8,9,9a-octahydroazuleno[6,5-b]furan-2,5-dione]
- IC50 (in vitro [1]): ~1000 nM
- IC50 (in vitro [2]): ~1000 nM

Structure (SMILES): Cc1cccc(C)c1OCC(=O)N[C@@H](Cc1ccccc1)[C@@H](O)C[C@H](Cc1ccccc1)NC(=O)[C@H](C(C)C)N1CCCNC1=O [Lopinavir]
- women with high-grade disease having normal cervical conditions (HPV): 82.6%

Structure (SMILES): CC(=O)Oc1ccccc1C(=O)O [crushed aspirin, aspirin]
- wart after treatment was stopped (ankle wart; treatment stopped): regrew
- wart size (ankle wart; under a commercial band aid for several weeks): slightly reduced in size

Structure (SMILES): O=[N+]([O-])[O-].[Ag+] [silver nitrate, Silver nitrate]
- improvement in warts (warts): 26%
